Measured values reported in ChEMBL document CHEMBL1909046, “DrugMatrix in vitro pharmacology data”.

Assays:
[1] = target: 5-hydroxytryptamine receptor 1B (Rattus norvegicus, UniProt P28564); type: cell membranes, Wistar, Cerebral cortex, Membrane; conditions: for Ki: read-out: Ki; for all read-outs here: in other assays of this panel Not Active means under 50% inhibition at 10 µM
[2] = target: T1, Muscarinic acetylcholine receptor M4 (Homo sapiens, UniProt P08173); type: cell membranes, CHO-K1, Membrane; conditions: for Ki: read-out: Ki; for all read-outs here: in other assays of this panel Not Active means under 50% inhibition at 10 µM
T1 sequence (P08173 whole entry): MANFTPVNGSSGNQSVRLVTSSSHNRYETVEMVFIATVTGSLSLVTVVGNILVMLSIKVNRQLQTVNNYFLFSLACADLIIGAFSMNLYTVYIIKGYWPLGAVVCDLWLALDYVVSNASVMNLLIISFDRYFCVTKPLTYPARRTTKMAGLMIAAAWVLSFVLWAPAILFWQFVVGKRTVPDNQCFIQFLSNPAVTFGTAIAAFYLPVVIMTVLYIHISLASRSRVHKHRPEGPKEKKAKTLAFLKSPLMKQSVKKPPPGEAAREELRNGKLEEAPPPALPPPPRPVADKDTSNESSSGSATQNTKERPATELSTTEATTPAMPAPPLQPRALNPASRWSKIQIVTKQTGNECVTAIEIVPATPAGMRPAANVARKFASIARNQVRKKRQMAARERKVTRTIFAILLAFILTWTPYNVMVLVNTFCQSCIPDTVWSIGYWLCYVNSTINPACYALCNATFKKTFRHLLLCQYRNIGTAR

[3] = target: Sigma non-opioid intracellular receptor 1 (Homo sapiens, UniProt Q99720); test: DRUGMATRIX: Sigma1 radioligand binding (ligand: [3H] Haloperidol); type: cell membranes, Jurkat, Membrane; conditions: Not Active = under 50% inhibition at 10 µM; for Ki: read-out: Ki
[4] = target: Protein phosphatase 3 catalytic subunit alpha (Homo sapiens, UniProt Q08209); design: species or system Escherichia coli;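 note: inhibition of calcineurin (PP2B) enzyme activity, measured with DiFMUP as the substrate; in other assays of this panel Not Active means under 50% inhibition at 10 µM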
[5] = target: Mitogen-activated protein kinase 3 (Homo sapiens, UniProt P27361); test: DRUGMATRIX: Protein Serine/Threonine Kinase, ERK1 enzyme inhibition (substrate: Myelin Basic Protein); design: species or system Escherichia coli; conditions: Not Active = under 50% inhibition at 10 µM
Vasopressin V1a receptor = Vasopressin V1a receptor (Homo sapiens, UniProt P37288); type: cell membranes, Membrane; conditions: hek293; note: in other assays of this panel Not Active means under 50% inhibition at 10 µM
Sequence of Vasopressin V1a receptor (P37288 whole entry): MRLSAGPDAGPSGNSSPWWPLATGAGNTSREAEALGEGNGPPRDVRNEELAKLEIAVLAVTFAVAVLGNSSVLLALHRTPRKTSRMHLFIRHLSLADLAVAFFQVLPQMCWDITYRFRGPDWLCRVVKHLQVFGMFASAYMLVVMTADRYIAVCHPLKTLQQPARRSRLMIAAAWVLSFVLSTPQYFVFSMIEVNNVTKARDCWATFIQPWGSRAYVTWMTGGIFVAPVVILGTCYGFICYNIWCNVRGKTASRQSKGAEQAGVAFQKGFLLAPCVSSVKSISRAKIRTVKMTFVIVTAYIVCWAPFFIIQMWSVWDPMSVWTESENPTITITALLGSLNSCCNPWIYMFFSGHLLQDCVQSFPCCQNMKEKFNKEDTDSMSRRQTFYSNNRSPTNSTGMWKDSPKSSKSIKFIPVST

Sequence of Mitogen-activated protein kinase 3 (P27361 whole entry): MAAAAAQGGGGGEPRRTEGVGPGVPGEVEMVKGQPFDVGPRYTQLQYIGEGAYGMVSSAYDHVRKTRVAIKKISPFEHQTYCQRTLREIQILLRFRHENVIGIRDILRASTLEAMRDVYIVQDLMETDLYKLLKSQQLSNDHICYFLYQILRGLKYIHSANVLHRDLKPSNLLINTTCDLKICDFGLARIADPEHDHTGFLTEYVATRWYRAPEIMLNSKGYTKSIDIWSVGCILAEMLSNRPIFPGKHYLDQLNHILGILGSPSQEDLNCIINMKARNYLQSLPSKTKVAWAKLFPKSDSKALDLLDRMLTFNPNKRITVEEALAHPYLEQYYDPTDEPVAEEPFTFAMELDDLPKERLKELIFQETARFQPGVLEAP
Sequence of Sigma non-opioid intracellular receptor 1 (Q99720 whole entry): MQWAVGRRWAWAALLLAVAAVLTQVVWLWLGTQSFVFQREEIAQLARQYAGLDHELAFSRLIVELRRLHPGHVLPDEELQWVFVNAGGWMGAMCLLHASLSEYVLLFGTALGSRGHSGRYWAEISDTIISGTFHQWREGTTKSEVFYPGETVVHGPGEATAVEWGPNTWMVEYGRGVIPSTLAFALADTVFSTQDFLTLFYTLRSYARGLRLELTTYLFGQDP
Sequence of 5-hydroxytryptamine receptor 1B (P28564 whole entry): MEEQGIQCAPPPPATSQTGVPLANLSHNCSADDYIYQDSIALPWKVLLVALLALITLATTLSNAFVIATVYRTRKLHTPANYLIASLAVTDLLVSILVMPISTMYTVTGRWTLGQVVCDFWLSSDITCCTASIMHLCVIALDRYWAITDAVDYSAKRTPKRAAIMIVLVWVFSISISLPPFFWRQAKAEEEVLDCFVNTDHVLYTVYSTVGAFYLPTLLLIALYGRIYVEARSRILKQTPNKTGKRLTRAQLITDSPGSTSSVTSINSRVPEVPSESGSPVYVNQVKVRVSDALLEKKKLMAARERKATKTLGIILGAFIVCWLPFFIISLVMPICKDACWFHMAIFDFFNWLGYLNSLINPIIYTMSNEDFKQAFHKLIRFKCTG

Row | Compound | IC50 [1] | IC50 ([2]; cho-k1) | IC50 ([3]; jurkat) | IC50 [4] | IC50 [5] | IC50 (Vasopressin V1a receptor) | IC50 ([1]; read-out: IC50) | Ki [1] | IC50 ([2]; read-out: IC50) | Ki [2] | IC50 ([3]; read-out: IC50) | Ki [3] | IC50 ([4]; read-out: IC50) | IC50 ([5]; read-out: IC50)
1 | CC(C)(C)NC(=O)[C@@H]1C[C@@H]2CCCC[C@@H]2CN1C[C@@H](O)[C@H](Cc1ccccc1)NC(=O)[C@H](CC(N)=O)NC(=O)c1ccc2ccccc2n1 | Not Active | Not Active | Not Active | Not Active | Not Active | – | – | – | – | – | – | – | – | –
2 | CC(=O)[C@@]1(O)CC[C@H]2[C@@H]3C[C@H](C)C4=CC(=O)CC[C@]4(C)[C@H]3CC[C@@]21C | Not Active | Not Active | Not Active | Not Active | Not Active | Not Active | – | – | – | – | – | – | – | –
3 | N[C@@H](Cc1ccc(N(CCCl)CCCl)cc1)C(=O)O | Not Active | Not Active | Not Active | Not Active | Not Active | Not Active | – | – | – | – | – | – | – | –
4 | CCCCc1oc2ccccc2c1C(=O)c1cc(I)c(OCCN(CC)CC)c(I)c1 [AMIODARONE] | – | – | – | Not Active | Not Active | Not Active | 86.2 µM | 39.2 µM | 3.63 µM | 0.506 µM | – | – | – | –
5 | OCCN(CCO)c1nc(N2CCCCC2)c2nc(N(CCO)CCO)nc(N3CCCCC3)c2n1 [DIPYRIDAMOLE] | Not Active | Not Active | Not Active | Not Active | Not Active | Not Active | – | – | – | – | – | – | – | –
6 | Cc1oncc1C(=O)Nc1ccc(C(F)(F)F)cc1 [LEFLUNOMIDE] | Not Active | Not Active | Not Active | Not Active | Not Active | Not Active | – | – | – | – | – | – | – | –
7 | c1ccc([C@H]2CN3CCSC3=N2)cc1 [LEVAMISOLE] | Not Active | Not Active | Not Active | Not Active | Not Active | Not Active | – | – | – | – | – | – | – | –
8 | N[C@@H](Cc1ccc(O)c(O)c1)C(=O)O [LEVODOPA] | Not Active | Not Active | Not Active | Not Active | Not Active | Not Active | – | – | – | – | – | – | – | –
9 | N[C@@H](Cc1cc(I)c(Oc2ccc(O)c(I)c2)c(I)c1)C(=O)O [LIOTHYRONINE] | Not Active | Not Active | Not Active | Not Active | Not Active | Not Active | – | – | – | – | – | – | – | –
10 | O=NN(CCCl)C(=O)NC1CCCCC1 [LOMUSTINE] | Not Active | Not Active | Not Active | Not Active | Not Active | Not Active | – | – | – | – | – | – | – | –
11 | CCOC(=O)N1CCC(=C2c3ccc(Cl)cc3CCc3cccnc32)CC1 [LORATADINE] | Not Active | Not Active | Not Active | Not Active | Not Active | Not Active | – | – | – | – | – | – | – | –
12 | Cn1ccnc1S [METHIMAZOLE] | Not Active | Not Active | Not Active | Not Active | Not Active | Not Active | – | – | – | – | – | – | – | –
13 | CC[C@@H](CO)NC(=O)[C@@H]1C=C2c3cccc4[nH]cc(c34)C[C@H]2N(C)C1 [METHYLERGONOVINE] | – | Not Active | Not Active | Not Active | Not Active | Not Active | 0.015 µM | 0.00926 µM | – | – | – | – | – | –
14 | COc1nc(C)nc(Cl)c1NC1=NCCN1 [MOXONIDINE] | Not Active | Not Active | Not Active | Not Active | Not Active | Not Active | – | – | – | – | – | – | – | –
15 | COc1c(C)c2c(c(O)c1C/C=C(\C)CCC(=O)O)C(=O)OC2 [MYCOPHENOLIC ACID] | Not Active | Not Active | Not Active | Not Active | Not Active | Not Active | – | – | – | – | – | – | – | –
16 | O=c1ncn2nc(Sc3ccc(F)cc3F)ccc2c1-c1c(Cl)cccc1Cl [NEFLAMAPIMOD] | Not Active | Not Active | Not Active | Not Active | Not Active | Not Active | – | – | – | – | – | – | – | –

Row | Compound | IC50 [1] | IC50 ([2]; cho-k1) | IC50 ([3]; jurkat) | IC50 [4] | IC50 [5] | IC50 (Vasopressin V1a receptor) | IC50 ([1]; read-out: IC50) | Ki [1] | IC50 ([2]; read-out: IC50) | Ki [2] | IC50 ([3]; read-out: IC50) | Ki [3] | IC50 ([4]; read-out: IC50) | IC50 ([5]; read-out: IC50)
17 | CN1CCN(CCCN2c3ccccc3Sc3ccc(Cl)cc32)CC1 [PROCHLORPERAZINE] | – | – | – | Not Active | Not Active | Not Active | 2.65 µM | 1.2 µM | 1.36 µM | 0.19 µM | 0.054 µM | 0.023 µM | – | –
18 | CO[C@H]1/C=C/O[C@@]2(C)Oc3c(C)c(O)c4c(O)c(c(/C=N/N5CCN(C)CC5)c(O)c4c3C2=O)NC(=O)/C(C)=C\C=C\[C@H](C)[C@H](O)[C@@H](C)[C@@H](O)[C@@H](C)[C@H](OC(C)=O)[C@@H]1C [RIFAMPIN] | Not Active | Not Active | Not Active | Not Active | Not Active | Not Active | – | – | – | – | – | – | – | –
19 | Nc1nc2ccc(OC(F)(F)F)cc2s1 [RILUZOLE] | Not Active | Not Active | Not Active | Not Active | Not Active | Not Active | – | – | – | – | – | – | – | –
20 | Cc1nc2n(c(=O)c1CCN1CCC(c3noc4cc(F)ccc34)CC1)CCCC2 [RISPERIDONE] | Not Active | Not Active | – | Not Active | Not Active | Not Active | – | – | – | – | – | – | – | –
21 | C=CCC1(C(C)CCC)C(=O)NC(=O)NC1=O (configuration not stated) [SECOBARBITAL] | Not Active | Not Active | Not Active | Not Active | Not Active | Not Active | – | – | – | – | – | – | – | –
22 | C[C@@H]1CN(c2c(F)c(N)c3c(=O)c(C(=O)O)cn(C4CC4)c3c2F)C[C@H](C)N1 [SPARFLOXACIN] | Not Active | Not Active | Not Active | Not Active | Not Active | Not Active | – | – | – | – | – | – | – | –
23 | Cc1noc(NS(=O)(=O)c2ccc(N)cc2)c1C [SULFISOXAZOLE] | Not Active | Not Active | Not Active | Not Active | Not Active | Not Active | – | – | – | – | – | – | – | –
24 | CSc1ccc(/C=C2/C(C)=C(CC(=O)O)c3cc(F)ccc32)cc1 [SULINDAC SULFIDE] | Not Active | Not Active | Not Active | Not Active | Not Active | Not Active | – | – | – | – | – | – | – | –
25 | Nc1c2c(nc3ccccc13)CCCC2 [TACRINE] | Not Active | Not Active | Not Active | Not Active | Not Active | Not Active | – | – | – | – | – | – | – | –
26 | CC/C(=C(\c1ccccc1)c1ccc(OCCN(C)C)cc1)c1ccccc1 [TAMOXIFEN] | Not Active | – | – | – | Not Active | Not Active | – | – | 4.82 µM | 0.672 µM | – | – | 30.6 µM | –
27 | CC(C)N1CCN(c2ccc(OCC3COC(Cn4cncn4)(c4ccc(Cl)cc4Cl)O3)cc2)CC1 (configuration not stated) [TERCONAZOLE] | – | – | – | Not Active | Not Active | Not Active | 89.9 µM | 40.9 µM | 13.7 µM | 1.91 µM | 0.508 µM | 0.214 µM | – | –
28 | Nc1nc2nc[nH]c2c(=S)[nH]1 [THIOGUANINE] | Not Active | Not Active | Not Active | Not Active | – | Not Active | – | – | – | – | – | – | – | 5.52 µM
29 | Cc1cccc(N(C)C(=S)Oc2ccc3ccccc3c2)c1 [TOLNAFTATE] | Not Active | Not Active | Not Active | Not Active | Not Active | Not Active | – | – | – | – | – | – | – | –
30 | NC[C@H]1CC[C@H](C(=O)O)CC1 [TRANEXAMIC ACID] | Not Active | Not Active | Not Active | Not Active | Not Active | Not Active | – | – | – | – | – | – | – | –
31 | CC1(C)O[C@@H]2C[C@H]3[C@@H]4CCC5=CC(=O)C=C[C@]5(C)[C@@]4(F)[C@@H](O)C[C@]3(C)[C@]2(C(=O)CO)O1 [TRIAMCINOLONE ACETONIDE] | Not Active | Not Active | Not Active | Not Active | Not Active | Not Active | – | – | – | – | – | – | – | –
